Data on 4 compounds can be found in patent US5028609A, “Alkyl diamine derivatives” (Alkaloida Vegyeszeti Gyar, priority 1983, dated 1991).

Molecules are shown by their SMILES.

The subject of one data set is arrhythmia in rats. Description: arrhythmia test carried out in rats according to Zetler and Strubelt (ED125, ED150). The class given is in vivo. Conditions: Rattus norvegicus, iv.
Data set [1] can be described thus: acute intravenous toxicity, method of Litchfield and Wilcoxon. The data set is classed as in vivo. Conditions: mouse, in vivo, iv, mice. As for the experimental part:
The acute intravenous (i.v.) toxicity values of the testcompounds was determined by the method of Litchfield and Wilcoxon and as test-animals white mice of both sexes were used (J. of Pharmacol. 1949, 96, 99.).

For data set [2], the system named is aconitine arrhythmia on rats. Description: preventive aconitine arrhythmia test on rats. The class given is in vivo, rats of Wistar strain. The settings on record: for arrhythmia appearance time: ± S.E., 30 min monitoring; for responders at 4 mg/kg: read-out: positive cases, 4.0 mg/kg i.v., 2 min before aconitine. As to the method: The antiarrhythmic activity of the compounds of the Formula I was compared in a preventive aconitine arrhythmia test on rats as follows:
rats of Wistar strain weighing 200 to 250 g. were narcotized i.p. with 1.25 g./kg. of urethane and their ECG was registered by a Hellige equipment by II standard limb head.
Arrhythmia was induced by an i.v. infusion of 30 /ug/kg. aconitine nitrate whereafter the ECG was continuously monitored for 30 minutes.
Those cases were considered positive, where within 30 minutes after the aconitine infusion not a single phase of the arrhythmia occurred.
In control animals pretreated i.v. with a 0.9% sodium chloride solution (0.1 ml./100 g.) (n=20) the arrhythmogenic activity of the aconitine nitrate appeared after 2.88±0.32 minutes.
Per cent values of the positive cases, average time of the appearance of the arrhythmia-when the induced arrhythmia appeared within 30 minutes and toxicity values are shown.

[3] abbreviates: Rattus norvegicus, iv, 0.5 h, no arrhythmia within 30 min = positive.

Method for arrhythmia in rats: In cases of compounds having outstanding antiarrhythmic activity ED125 and ED150 values were calculated in arrhythmia test carried out in rats according to Zetler and Strubelt (Arzneim.-Forsch.) Drug.

For `CC=Cc1ccc(OCC(=O)NCCNC(=O)C2=CC(C)(C)NC2(C)C)c(OC)c1` [I/21], in the data set with arrhythmia in rats, the ED125 is 2.4 mg/kg and the ED150 was 4.1 mg/kg. The compound further displayed a 50% lethal dose (LD50) in data set [1] of 18 mg/kg. For the same compound, the arrhythmia appearance time in data set [2] (4.0 mg/kg i.v.) is recorded as > 30 min. Further, the responders at 4 mg/kg in data set [2] (setting [3]) was 100%.
In the data set on arrhythmia in rats, `C=C[C@H]1C[N@@]2CC[C@H]1C[C@@H]2[C@@H](O)c1ccnc2ccc(OC)cc12` [quinidine, reference compound] had an ED125 of 7.8 mg/kg and an ED150 of 10.8 mg/kg. The compound also gave an LD50 in data set [1] of 95 mg/kg. Moreover, the arrhythmia appearance time in data set [2] (9.5 mg/kg i.v.) was determined as 10.0 ± 0.4 min. In addition, in data set [2] (Rattus norvegicus, iv, 0.5 h, read-out: positive cases, 9.5 mg/kg i.v., 2 min before aconitine, no arrhythmia within 30 min = positive), the responders at 9.5 mg/kg turned out to be 70%.
In the data set on arrhythmia in rats, `CCN(CC)CCNC(=O)c1ccc(N)cc1` [procainamide, reference compound] gave an ED125 of 11 mg/kg and an ED150 of 14 mg/kg. For the same compound, the LD50 in data set [1] worked out at 141 mg/kg. The arrhythmia appearance time in data set [2] (8.0 mg/kg i.v.) worked out at 9.5 ± 1.2 min. For the same compound, in data set [2] (Rattus norvegicus, iv, 0.5 h, read-out: positive cases, 8.0 mg/kg i.v., 2 min before aconitine, no arrhythmia within 30 min = positive), the responders at 8 mg/kg worked out at 30%.
In the data set on arrhythmia in rats, `CC=Cc1ccc(OC(C)C(=O)NCCCNC(=O)C2=CC(C)(C)NC2(C)C)c(OC)c1` (centres unmarked) [I/22] returned an ED125 of 1.9 mg/kg and an ED150 of 2.7 mg/kg. Further, the median lethal dose (LD50) in data set [1] turned out to be 14 mg/kg. Besides, the arrhythmia appearance time in data set [2] (4.0 mg/kg i.v.) is recorded as > 30 min. In addition, in data set [2] (setting [3]), the responders at 4 mg/kg stood at 100%.

For orientation: LD50 means the dose at which mortality reaches 50%. Low readings indicate greater toxicity, high ones lower toxicity.
